Usually MIC stands for the smallest concentration in the dilution series that meets the test's criterion for growth inhibition. The low end stands for greater potency, the high end for weaker potency.

≈ marks a conversion by molar mass, not a printed value.

A short description of one data set: in vivo. The source says:
Mouse maximum tolerated dose (MTD) of fabimycin
The protocol to assess fabimycin’s murine MTD when formulated in 20% sulfobutyl ether(7) β-cyclodextrin (SBE-β-CD) in H2O was approved by the Institutional Animal Care and Use Committee (IACUC) at the University of Illinois at Urbana-Champaign (protocol number: 19181). […]
from Charles River were used. Mice were randomly chosen and divided into subsequent groups. No additional randomization was used to allocate the experimental groups; blinding was not performed for subsequent quantitation.
The MTD of a single dosage of a given compound was determined before evaluating the MTD of multiple dosages. […]
weeks (single dose). The single-dose MTDs were determined first. For multiple doses, the compound was given by daily […]
highest dosage with acceptable toxicity (<20% weight loss). MTD values shown for Debio-1452-NH3 are as previously reported.3 MTD values for fabimycin when formulated in 17% Cremophor EL/3% SBE-β-CD were drawn from infection models conducted with neutropenic A. baumannii-infected mice (see below). […]
River Licensee) weighing 18 ± 2 grams were used.10 All animals were specific pathogen free. Mice were rendered neutropenic via cyclophosphamide (CP) administration by two intraperitoneal (IP) injections following a standard method for mouse thigh infection models.11 The first CP dose, 150 mg/kg, was administered at four days before infection (Day –4); and the second, 100 mg/kg, at 24 h before infection (Day –1), prior to infection on Day 0.

For data set [1], the system named is Stenotrophomonas maltophilia ATCC 13637. Briefly: MIC, commensal bacteria. As to conditions: ATCC13637. In kind it is cell-based. Here is the method: (§1) II. Materials and Methods for Biological Experiments
(§2) S. aureus ATCC 29213 and E. coli MG1655 were obtained from the American Type Culture Collection (ATCC). E. coli BW25113 and E. coli JW5503 were obtained from the Keio Collection. AR-bank strains were obtained from the Centers for Disease Control and Prevention and FDA Antibiotic Resistance Isolate Bank.
(§3) Antimicrobial susceptibility tests
(§4) Susceptibility testing was performed in biological triplicate, unless noted otherwise, using the micro-dilution broth method as outlined by the Clinical and Laboratory Standards Institute. Bacteria were cultured with cation-adjusted Mueller Hinton broth (Sigma Aldrich, catalogue number: 90922). […]
(§5) Error bars represent the standard error of the mean of three biological replicates. All compounds evaluated in biological assays were ≥95% pure.

Data set [2] concerns Bacteroides fragilis ATCC 25285. Briefly: MIC, commensal bacteria. The class given is cell-based. To be noted: ATCC25285. Here is the method:
as §1, §2, §3, §4, §5

In data set [3] the test system is Streptococcus salivarius KLE 2370. Briefly: MIC, commensal bacteria. The class given is cell-based. To be noted: KLE2370. Here is the method:
as §1, §2, §3, §4, §5

In another data set the test system is E. coli AR-0055. Briefly: Urinary tract infection model. In kind it is in vivo, mouse. As to conditions: 33.3 mg/kg IV three times a day, 168 h postinfection. Here is the method:
Urinary tract infection model
The protocol to assess fabimycin’s efficacy in a urinary tract infection was approved by the IACUC (protocol number:
IM011-12282020). In this study specific pathogen-free C3H/HeJ (Tlr4Lps-d) mice that were 7-8 weeks were used and provided with 5% glucose for 6 days prior to infection and for the duration of the experiment.12, 13 On day 0, mice were infected with E. coli AR-0055 (1.38 * 10^9 CFU/mouse, transurethral) while under pentobarbital anesthesia (50 mg/kg, IP). Treatment was initiated 96 hours post-infection with test articles. Fabimycin was formulated in 17% Cremophor EL/3% SBE-β-CD and administered intravenously while the control, colistin, was formulated in 0.9% NaCl and administered subcutaneously. Doses were administered once, twice, or three times daily for 3 consecutive days with animal sacrifice and burden enumeration at 168 hours post-infection. Tissues were collected and pathogen burden evaluated by dilution plating technique on nutrient agar plates.

`Cc1c(CN(C)C(=O)/C=C/c2cnc3c(c2)CC[C@H](N)C(=O)N3)oc2ccccc12` [fabimycin] displayed an MTD in “in vivo” (BALB/c, mouse, iv) of 100 mg/kg. For the same compound, the MTD at 1 day in the data set “in vivo” (BALB/c, mouse, iv) is 75 mg/kg; in the data set “in vivo” (female, C57BL/6, mouse, ip) it was over 200 mg/kg. Further, the MTD at 3 d in the data set “in vivo” (BALB/c, mouse, iv) was found to be 75 mg/kg. In the data set “in vivo” (female, C57BL/6, mouse, ip), this compound had an MTD at 2 weeks of over 200 mg/kg. In the data set “in vivo” (female, C57BL/6, mouse, ip), this compound registered an MTD at 5 d of over 100 mg/kg. The figures for the minimum inhibitory concentration (MIC) in data set [1], in data set [2] and in data set [3] were 128 µg/mL (≈ 316 µM), over 128 µg/mL and over 128 µg/mL, respectively. The “log10 reduction in bacterial load relative to the vehicle” value in the data set on E. coli AR-0055 (bladder) is 2.8 log10; in the data set with E. coli AR-0055 (kidney), 1.9 log10; in the data set on E. coli AR-0055 (liver) it was 2.9 log10; in the data set with E. coli AR-0055 (spleen) it was 3.0 log10.
